In brackets after ≈: the same amount, converted by molar mass. Read-outs that look alike come from different tables or passages of the source.

EC50 and MIC data for two molecules are collected here from US12173018B2, “Penicillin-binding protein inhibitors” (priority 2018, dated 2024).

In one test the target is E. coli PBP3 (Escherichia coli (strain K12), UniProt P0AD68). Nature of the test: E. coli PBP3 Bocillin-FL fluorescence polarization competition binding assay. The procedure, abridged: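 Purified PBP (1.5 μM final) was combined with test compound (0–1000 μM) and Bocillin-FL (fluorescent penicillin V, 0.1 μM final) in 50 mM Hepes pH 8.0, 300 mM NaCl, 5% glycerol.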
(In general: Fluorescence polarisation rises when a labelled molecule tumbles more slowly, as on binding a larger partner.)

Test [1] deals with E. coli DH5α empty pLBII vector control strain. Nature of the test: microbe, parasite or virus in culture. Type of test: cell-based, Escherichia coli. Conditions: Escherichia coli, read-out: Microbiological Activity (MIC in mg/L), E. coli DH5α/pLBII. The method in brief: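 MIC was the lowest concentration visibly free of growth after 16–20 h at 37 °C, against 5×10^5 CFU/mL of the empty-pLBII DH5α control strain. Twofold compound dilutions were made in cation-adjusted Mueller-Hinton broth.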

A further test deals with E. coli PBP4 (Escherichia coli (strain K12), UniProt P24228). Nature of the test: E. coli PBP4 Bocillin-FL fluorescence polarization competition binding assay. The text has this:
To determine the ability of boronic acid-based test PBP inhibitors to bind Penicillin Binding Proteins (PBPs), Bocillin-FL (fluorescently-labeled penicillin V; ThermoFisher Scientific) was used in a fluorescence polarization (FP) competition binding assay to assess inhibitor binding to PBP2, PBP3 or PBP4 from Escherichia coli. PBPs were cloned and purified as described previously (King, D. T, et al., ACS Infectious Diseases 2015, 1, 175-184). To establish assay conditions for competition binding, an enzyme titration/saturation binding experiment was initially performed. Bocillin-FL was prepared at 0.2 μM in a buffer comprised of 50 mM Hepes (pH 8.0), 300 mM NaCl and 5% (v/v) glycerol. Saturation binding was performed by mixing 40 μl of PBP solutions ranging in concentrations from 0-12 μM with 40 μl of the 0.2 μM Bocillin-FL solution, in individual wells of a black 384-well microplate. FP was measured immediately upon mixing (Excitation, 490 nm; Emission, 520 nm; g-factor, 0.96), using a Cytation3 (BioTek) microplate reader and measured continuously for up to 120 minutes. […] Assays (80 μl final volume) were performed with PBPs at a final concentration of 1.5 μM, Bocillin-FL at 0.1 μM and beta-lactam concentrations that ranged from 0-1000 μM. […] Bocillin-FL was added and the FP immediately measured for 60 minutes (90 minutes for PBP2). The beta-lactam potency was reported as the concentration of beta-lactam required to reduce binding of Bocillin-FL by […] (EC50). […] Binding assays for boronic acid PBP inhibitors were performed in an identical fashion.

The target of another test is E. coli PBP1a (Escherichia coli (strain K12), UniProt P02918). Put plainly: Radioligand competition binding assay with 14C-labeled boronic acid probe, PBP1a. The method in brief: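 Purified E. coli PBP1a (0.1 μM) preincubated 60 min with test boronic acid inhibitor in 20 mM Tris pH 7.5, 500 mM NaCl, 0.1% Triton X-100, then 60 min with 20 μM ^14C-labeled boronic acid probe. Bound probe recovered by spin desalting and counted by scintillation; EC50 reported.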
Background: In a radioligand displacement assay an active substance lowers the binding of a labelled ligand.

The target in another test is E. coli PBP2 (Escherichia coli (strain K12), UniProt P0AD65). Nature of the test: E. coli PBP2 Bocillin-FL fluorescence polarization competition binding assay. The method in brief:
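Purified PBP2 at 1.5 μM final was preincubated with boronic acid inhibitor, then Bocillin-FL added to 0.1 μM final in Hepes pH 8.0/NaCl/glycerol buffer. Polarization was monitored 90 min; the concentration halving probe binding is reported as EC50.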

Test [2] concerns engineered strain of Escherichia coli harboring CTX-M15. Put plainly: microbe, parasite or virus in culture. In kind it is cell-based. Conditions: Escherichia coli, read-out: Microbiological Activity (MIC in mg/L), E. coli DH5α/pLBII-CTX-M15, engineered strain producing CTX-M15.
In another test the test system is E. coli AG100A. Nature of the test: microbe, parasite or virus in culture. Type of test: cell-based. Conditions: Escherichia coli, read-out: MIC E. coli AG100A. The procedure, abridged:
(§1)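 MIC = lowest concentration showing no visible growth after 16-20 h at 37° C. Cation-adjusted MH broth, 2-fold serial dilutions, starting inoculum 5×10^5 CFU/mL, per CLSI methods.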

Another test concerns K. pneumoniae UMM. Nature of the test: microbe, parasite or virus in culture. Type of test: cell-based. Conditions: Klebsiella pneumoniae; K. pneumoniae UMM producing SHV-5 and KPC-2; read-out: MIC K. pneumoniae UMM. The procedure, abridged: as §1
In a further test the test system is E. coli 901C. Put plainly: microbe, parasite or virus in culture. Type of test: cell-based. The following applies: Escherichia coli; hyper-permeable E. coli 901C, broth microdilution; read-out: MIC E. coli 901C. The procedure, abridged: as §1
A general note: In broth dilution the organism is exposed to a series of concentrations in liquid medium.

The subject of a further test is E. coli ATCC 25922. Put plainly: Broth microdilution MIC, E. coli ATCC 25922. In kind it is cell-based. The following applies: Escherichia coli, ATCC25922; E. coli ATCC 25922, broth microdilution; read-out: MIC E. coli 25922. The method in brief: as §1
A further test deals with E. coli AG100. Nature of the test: Broth microdilution MIC, E. coli AG100 (wild-type parent). In kind it is cell-based. Conditions: Escherichia coli; wild-type parent E. coli AG100, broth microdilution; read-out: MIC E. coli AG100. The method in brief: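 Starting inoculum of 5×10^5 CFU/mL, from colonies grown 3-5 h in Mueller-Hinton broth with divalent cations, added to two-fold compound dilution series.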

Chain of E. coli PBP2 (P0AD65 whole entry): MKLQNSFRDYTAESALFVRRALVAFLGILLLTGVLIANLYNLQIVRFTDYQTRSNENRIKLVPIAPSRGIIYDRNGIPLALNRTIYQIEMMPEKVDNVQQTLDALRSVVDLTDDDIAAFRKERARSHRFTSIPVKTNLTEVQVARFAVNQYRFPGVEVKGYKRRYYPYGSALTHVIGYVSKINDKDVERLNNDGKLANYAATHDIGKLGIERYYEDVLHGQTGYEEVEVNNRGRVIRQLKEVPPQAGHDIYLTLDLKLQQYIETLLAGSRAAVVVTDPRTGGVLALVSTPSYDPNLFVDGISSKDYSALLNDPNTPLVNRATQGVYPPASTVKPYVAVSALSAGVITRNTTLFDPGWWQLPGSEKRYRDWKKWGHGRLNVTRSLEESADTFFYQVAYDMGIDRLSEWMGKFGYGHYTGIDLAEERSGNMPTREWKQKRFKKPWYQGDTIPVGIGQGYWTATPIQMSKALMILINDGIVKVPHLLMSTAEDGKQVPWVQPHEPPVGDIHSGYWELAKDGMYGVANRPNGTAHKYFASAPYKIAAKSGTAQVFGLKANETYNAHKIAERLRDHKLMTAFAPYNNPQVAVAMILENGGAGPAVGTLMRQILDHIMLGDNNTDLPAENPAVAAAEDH
Chain of E. coli PBP4 (P24228 21-477): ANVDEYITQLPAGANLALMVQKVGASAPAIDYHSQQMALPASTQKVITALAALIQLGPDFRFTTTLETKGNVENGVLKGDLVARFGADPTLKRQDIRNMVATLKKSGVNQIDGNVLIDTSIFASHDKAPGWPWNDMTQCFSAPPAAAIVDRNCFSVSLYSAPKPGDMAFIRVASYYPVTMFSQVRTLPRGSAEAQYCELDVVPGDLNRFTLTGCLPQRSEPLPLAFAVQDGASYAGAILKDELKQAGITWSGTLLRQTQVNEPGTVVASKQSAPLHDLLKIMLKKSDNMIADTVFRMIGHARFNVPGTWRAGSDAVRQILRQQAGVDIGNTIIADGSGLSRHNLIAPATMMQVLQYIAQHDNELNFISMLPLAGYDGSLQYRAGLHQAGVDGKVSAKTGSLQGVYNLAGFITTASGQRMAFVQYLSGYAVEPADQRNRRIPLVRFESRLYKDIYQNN
Chain of E. coli PBP3 (P0AD68 whole entry): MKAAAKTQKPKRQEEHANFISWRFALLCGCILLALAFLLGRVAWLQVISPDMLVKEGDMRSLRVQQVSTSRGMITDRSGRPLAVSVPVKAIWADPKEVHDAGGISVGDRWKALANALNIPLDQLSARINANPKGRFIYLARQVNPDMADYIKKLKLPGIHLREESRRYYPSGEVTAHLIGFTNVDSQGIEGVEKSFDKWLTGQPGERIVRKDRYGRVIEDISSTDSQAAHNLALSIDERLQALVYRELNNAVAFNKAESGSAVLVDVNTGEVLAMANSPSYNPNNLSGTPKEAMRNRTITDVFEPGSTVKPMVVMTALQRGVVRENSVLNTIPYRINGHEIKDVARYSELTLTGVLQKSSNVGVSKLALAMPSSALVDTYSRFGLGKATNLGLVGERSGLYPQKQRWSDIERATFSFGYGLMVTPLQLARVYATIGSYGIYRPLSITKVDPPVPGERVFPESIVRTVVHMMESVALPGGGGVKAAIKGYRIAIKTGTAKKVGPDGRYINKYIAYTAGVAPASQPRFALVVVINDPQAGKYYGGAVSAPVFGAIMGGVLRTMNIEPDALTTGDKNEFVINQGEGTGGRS
Chain of E. coli PBP1a (P02918 whole entry): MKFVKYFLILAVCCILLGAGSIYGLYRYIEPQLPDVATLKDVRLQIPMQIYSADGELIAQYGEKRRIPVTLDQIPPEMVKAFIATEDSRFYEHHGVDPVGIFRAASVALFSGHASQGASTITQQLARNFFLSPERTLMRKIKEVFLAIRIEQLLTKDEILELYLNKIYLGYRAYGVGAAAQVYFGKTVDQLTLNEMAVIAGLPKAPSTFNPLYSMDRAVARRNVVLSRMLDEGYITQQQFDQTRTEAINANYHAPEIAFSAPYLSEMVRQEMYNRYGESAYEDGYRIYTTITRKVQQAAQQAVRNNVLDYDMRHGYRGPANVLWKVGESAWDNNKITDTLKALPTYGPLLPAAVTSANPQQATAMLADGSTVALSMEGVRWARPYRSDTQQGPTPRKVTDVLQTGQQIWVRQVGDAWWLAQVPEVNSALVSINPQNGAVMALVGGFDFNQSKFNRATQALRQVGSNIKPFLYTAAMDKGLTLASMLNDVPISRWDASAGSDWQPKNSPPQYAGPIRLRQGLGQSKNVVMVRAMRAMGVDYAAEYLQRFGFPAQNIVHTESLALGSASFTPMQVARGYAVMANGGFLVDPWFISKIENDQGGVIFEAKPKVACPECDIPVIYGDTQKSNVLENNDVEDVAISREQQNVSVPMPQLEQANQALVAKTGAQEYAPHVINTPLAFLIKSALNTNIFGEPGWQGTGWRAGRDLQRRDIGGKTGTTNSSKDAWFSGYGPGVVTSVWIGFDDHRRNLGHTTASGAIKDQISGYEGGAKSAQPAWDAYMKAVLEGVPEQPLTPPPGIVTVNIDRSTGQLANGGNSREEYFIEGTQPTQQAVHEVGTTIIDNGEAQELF

As for `CCN1CCN(C(=O)NC(C(=O)N[C@H]2Cc3cc(C)cc(C(=O)O)c3OB2O)c2csc(N)n2)C(=O)C1=O` (stereo partly drawn) [Example 20, (3R)-3-(2-(2-aminothiazol-4-yl)-2-(4-ethyl-2,3-dioxopiperazine-1-carboxamido)acetamido)-2-hydroxy-6-methyl-3,4-dihydro-2H-benzo[e][1,2]oxaborinine-8-carboxylic acid], the EC50 at E. coli PBP3 is 30 to 500 µM; on E. coli PBP4 (fluorescence polarization competition binding with Bocillin-FL, read-out: E. coli K12 PBP4 Potency (EC50)), > 500 µM; at E. coli PBP1a it was < 10 µM; at E. coli PBP2 (fluorescence polarization competition binding with Bocillin-FL, read-out: E. coli K12 PBP2 Potency (EC50)), > 500 µM. Also, the MIC in [1] and in [2] was 32 to 64 mg/L (≈ 58.8 to 118 µM) throughout.
As to `CCN1CCN(C(=O)NC(C(=O)N[C@H]2Cc3cccc(C(=O)O)c3OB2O)c2ccc(O)cn2)C(=O)C1=O` (stereo partly drawn) [Example 89, (3R)-3-(2-(4-ethyl-2,3-dioxopiperazine-1-carboxamido)-2-(5-hydroxypyridin-2-yl)acetamido)-2-hydroxy-3,4-dihydro-2H-benzo[e][1,2]oxaborinine-8-carboxylic acid], the MIC lay within 2 to 4 µg/mL with E. coli AG100A; 8 to 16 µg/mL with K. pneumoniae UMM; 0.5 to 1 µg/mL in the test on E. coli 901C; 8 to 16 µg/mL in the test on E. coli ATCC 25922; 32 to 64 µg/mL in the test on E. coli AG100; 8 to 16 mg/L (≈ 15.2 to 30.5 µM) in test [2]. Moreover, the EC50 at E. coli PBP3 (fluorescence polarization competition binding with Bocillin-FL, read-out: E. coli K12 PBP3 Potency) is < 30 µM; at E. coli PBP4, 30 to 500 µM; at E. coli PBP2 it was 30 to 500 µM.
